Laboratory results taken from US20090075937A1, “LHRH ANTAGONISTS FOR THE TREATMENT OF LOWER URINARY TRACT SYMPTOMS” (AETERNA ZENTARIS GmbH, priority 2007, published 2009).
Non-standard residues stand in square brackets, D forms with d. Residues, ends and D or L forms follow the SMILES beside them. dPhe(4-Cl) = N[C@H](Cc1ccc(Cl)cc1)C(=O)O; d2Nal = N[C@H](Cc1ccc2ccccc2c1)C(=O)O; dCit = NC(=O)NCCC[C@@H](N)C(=O)O; d3Pal = N[C@H](Cc1cccnc1)C(=O)O

Tests used:
study subjects [1] = assay: Nocturia: how often the study subjects got up during the night in order to urinate; format: in vivo, human
Description: (§1) The results shown are percentage variations from baseline at the beginning of the study (week 0).
The results shown are mean values, how often the study subjects had to get up.

study subjects [2] = assay: Frequency of emptying: how often the study subjects had to urinate a second time within a 2 hour test period; format: in vivo, human
Description: as §1
The results shown are mean values, how often the study subjects had to urinate a second time.

study subjects [3] = assay: IPSS irritative subscore (sum of nocturia, frequency of emptying and urgency to urinate); format: in vivo, human; details: for IPSS irritative subscore (nocturia, frequency of emptying, urgency to urinate): percentage variation from baseline
Description: as §1

[4] = test system: testosterone blood levels; assay: Median testosterone blood levels / chemical (hormonal) castration; details: for Testosterone [ng/mL] (median): blood level
Description: Preferably, chemical (hormonal) castration is a testosterone castration and refers to a testosterone blood level of equal or below 1.2 ng/mL, preferably 0.5 ng/mL.
Study subjects were treated with Cetrorelix pamoate with the following doses according to the following administration schemes: • 60 mg Cetrorelix pamaote administered at week 0 and 30 mg Cetrorelix pamaote administered at week 2 (treatment period) followed by up to 5 months of no treatment (treatment-free period) • 60 mg Cetrorelix pamaote administered at week 0 and 60 mg Cetrorelix pamaote administered at week 2 (treatment period) followed by up to 5 months of no treatment (treatment-free period)
Study subjects were treated with Cetrorelix acetate with the following doses according to the following administration schemes: • 5 mg Cetrorelix acetate administered at week 0, 1, 2 and 3 (total monthly dose of 20 mg) (treatment period) followed by up to 4 months of no treatment (treatment-free period) • 10 mg Cetrorelix acetate administered at week 0 and 10 mg Cetrorelix acetate administered at week 2 (treatment period) followed by up to 4 months of no treatment (treatment-free period) • 10 mg Cetrorelix acetate administered at week 0, 1, 2 and 3 (total monthly dose of 40 mg) (treatment period) followed by up to 4 months of no treatment (treatment-free period)
Study subjects were treated with Ozarelix with the following doses according to the following administration schemes: • 15 mg Ozarelix administered at week 0 and 15 mg Ozarelix administered at week 2 (treatment period) followed by up to 4 months of no treatment (treatment-free period)

[5] = 2 × 10: 10 mg at week 0 and week 2, Week 0
[6] = 2 × 10: 10 mg at week 0 and week 2, Week 4
[7] = 2 × 10: 10 mg at week 0 and week 2, Week 8
[8] = 2 × 10: 10 mg at week 0 and week 2, Week 12
[9] = 2 × 10: 10 mg at week 0 and week 2, Week 16
[10] = 2 × 10: 10 mg at week 0 and week 2, Week 20
[11] = 4 × 5: 5 mg at week 0, 1, 2 and 3, Week 0
[12] = 4 × 5: 5 mg at week 0, 1, 2 and 3, Week 4
[13] = 4 × 5: 5 mg at week 0, 1, 2 and 3, Week 8
[14] = 4 × 5: 5 mg at week 0, 1, 2 and 3, Week 12
[15] = 4 × 5: 5 mg at week 0, 1, 2 and 3, Week 16
[16] = 4 × 5: 5 mg at week 0, 1, 2 and 3, Week 20
[17] = 4 × 10: 10 mg at week 0, 1, 2 and 3, Week 0
[18] = 4 × 10: 10 mg at week 0, 1, 2 and 3, Week 4
[19] = 4 × 10: 10 mg at week 0, 1, 2 and 3, Week 8
[20] = 4 × 10: 10 mg at week 0, 1, 2 and 3, Week 12
[21] = 4 × 10: 10 mg at week 0, 1, 2 and 3, Week 16
[22] = 4 × 10: 10 mg at week 0, 1, 2 and 3, Week 20
[23] = 5+5+5+5 mg, 10+10 mg and 10+10+10+10 mg schemes, largest difference, n-times mean

## CC(=O)N[C@H](Cc1ccc2ccccc2c1)C(=O)N[C@H](Cc1ccc(Cl)cc1)C(=O)N[C@H](Cc1cccnc1)C(=O)N[C@@H](CO)C(=O)N[C@@H](Cc1ccc(O)cc1)C(=O)N[C@H](CCCNC(N)=O)C(=O)N[C@@H](CC(C)C)C(=O)N[C@@H](CCCNC(=N)N)C(=O)N1CCC[C@H]1C(=O)N[C@H](C)C(N)=O [Cetrorelix acetate] (Ac-[d2Nal][dPhe(4-Cl)][d3Pal]SY[dCit]LRP[dA]-NH2)
Study subjects [1]; [5]
  Nocturia (n-times, mean): 2.69 n-times
Study subjects [1]; [6]
  Nocturia (n-times, mean): 2.00 n-times
Study subjects [1]; [7]
  Nocturia (n-times, mean): 2.06 n-times
Study subjects [1]; [8]
  Nocturia (n-times, mean): 1.97 n-times
Study subjects [1]; [9]
  Nocturia (n-times, mean): 1.97 n-times
Study subjects [1]; [10]
  Nocturia (n-times, mean): 2.16 n-times
Study subjects [1]; [11]
  Nocturia (n-times, mean): 2.57 n-times
Study subjects [1]; [12]
  Nocturia (n-times, mean): 2.09 n-times
Study subjects [1]; [13]
  Nocturia (n-times, mean): 1.94 n-times
Study subjects [1]; [14]
  Nocturia (n-times, mean): 1.85 n-times
Study subjects [1]; [15]
  Nocturia (n-times, mean): 1.79 n-times
Study subjects [1]; [16]
  Nocturia (n-times, mean): 1.85 n-times
Study subjects [1]; [17]
  Nocturia (n-times, mean): 2.63 n-times
Study subjects [1]; [18]
  Nocturia (n-times, mean): 1.79 n-times
Study subjects [1]; [19]
  Nocturia (n-times, mean): 1.78 n-times
Study subjects [1]; [20]
  Nocturia (n-times, mean): 1.75 n-times
Study subjects [1]; [21]
  Nocturia (n-times, mean): 1.87 n-times
Study subjects [1]; [22]
  Nocturia (n-times, mean): 2.16 n-times
Study subjects [1]; [23]
  decrease in nocturia frequency compared to placebo: up to 0.71
Study subjects [2]; [5]
  Frequency of emptying (n-times, mean): 2.29 n-times
Study subjects [2]; [6]
  Frequency of emptying (n-times, mean): 1.86 n-times
Study subjects [2]; [7]
  Frequency of emptying (n-times, mean): 1.58 n-times
Study subjects [2]; [8]
  Frequency of emptying (n-times, mean): 1.55 n-times
Study subjects [2]; [9]
  Frequency of emptying (n-times, mean): 1.45 n-times
Study subjects [2]; [10]
  Frequency of emptying (n-times, mean): 1.66 n-times
Study subjects [2]; [11]
  Frequency of emptying (n-times, mean): 2.49 n-times
Study subjects [2]; [12]
  Frequency of emptying (n-times, mean): 2.23 n-times
Study subjects [2]; [13]
  Frequency of emptying (n-times, mean): 2.00 n-times
Study subjects [2]; [14]
  Frequency of emptying (n-times, mean): 1.73 n-times
Study subjects [2]; [15]
  Frequency of emptying (n-times, mean): 1.52 n-times
Study subjects [2]; [16]
  Frequency of emptying (n-times, mean): 1.79 n-times
Study subjects [2]; [17]
  Frequency of emptying (n-times, mean): 2.86 n-times
Study subjects [2]; [18]
  Frequency of emptying (n-times, mean): 1.62 n-times
Study subjects [2]; [19]
  Frequency of emptying (n-times, mean): 1.66 n-times
Study subjects [2]; [20]
  Frequency of emptying (n-times, mean): 1.81 n-times
Study subjects [2]; [21]
  Frequency of emptying (n-times, mean): 1.65 n-times
Study subjects [2]; [22]
  Frequency of emptying (n-times, mean): 1.78 n-times
Study subjects [2]; [23]
  decrease in frequency of emptying compared to placebo: up to 1.35
Study subjects [3]; 5+5+5+5 mg, 10+10 mg and 10+10+10+10 mg schemes, largest difference
  further decrease in IPSS irritative subscore compared to placebo: up to 43%
Study subjects [3]; [5]
  IPSS irritative subscore (nocturia, frequency of emptying, urgency to urinate): 0%
Study subjects [3]; [6]
  IPSS irritative subscore (nocturia, frequency of emptying, urgency to urinate): −25%
Study subjects [3]; [7]
  IPSS irritative subscore (nocturia, frequency of emptying, urgency to urinate): −33.3%
Study subjects [3]; [8]
  IPSS irritative subscore (nocturia, frequency of emptying, urgency to urinate): −33.3%
Study subjects [3]; [9]
  IPSS irritative subscore (nocturia, frequency of emptying, urgency to urinate): −42.9%
Study subjects [3]; [10]
  IPSS irritative subscore (nocturia, frequency of emptying, urgency to urinate): −29.2%
Study subjects [3]; [11]
  IPSS irritative subscore (nocturia, frequency of emptying, urgency to urinate): 0%
Study subjects [3]; [12]
  IPSS irritative subscore (nocturia, frequency of emptying, urgency to urinate): −16.7%
Study subjects [3]; [13]
  IPSS irritative subscore (nocturia, frequency of emptying, urgency to urinate): −25%
Study subjects [3]; [14]
  IPSS irritative subscore (nocturia, frequency of emptying, urgency to urinate): −28.6%
Study subjects [3]; [15]
  IPSS irritative subscore (nocturia, frequency of emptying, urgency to urinate): −30.8%
Study subjects [3]; [16]
  IPSS irritative subscore (nocturia, frequency of emptying, urgency to urinate): −29.7%
Study subjects [3]; [17]
  IPSS irritative subscore (nocturia, frequency of emptying, urgency to urinate): 0%
Study subjects [3]; [18]
  IPSS irritative subscore (nocturia, frequency of emptying, urgency to urinate): −29.3%
Study subjects [3]; [19]
  IPSS irritative subscore (nocturia, frequency of emptying, urgency to urinate): −31%
Study subjects [3]; [20]
  IPSS irritative subscore (nocturia, frequency of emptying, urgency to urinate): −25%
Study subjects [3]; [21]
  IPSS irritative subscore (nocturia, frequency of emptying, urgency to urinate): −28.6%
Study subjects [3]; [22]
  IPSS irritative subscore (nocturia, frequency of emptying, urgency to urinate): −25%
[4]; 5+5+5+5 mg, 10+10 mg and 10+10+10+10 mg schemes, conclusion from median testosterone blood levels
  chemical (hormonal) castration: successfully prevented
[4]; [5]
  Testosterone [ng/mL] (median): 3.27 ng/mL
[4]; [6]
  Testosterone [ng/mL] (median): 4.41 ng/mL
[4]; [7]
  Testosterone [ng/mL] (median): 3.73 ng/mL
[4]; [8]
  Testosterone [ng/mL] (median): 4.45 ng/mL
[4]; [9]
  Testosterone [ng/mL] (median): 4.16 ng/mL
[4]; [10]
  Testosterone [ng/mL] (median): 4.12 ng/mL
[4]; [11]
  Testosterone [ng/mL] (median): 3.42 ng/mL
[4]; [12]
  Testosterone [ng/mL] (median): 2.95 ng/mL
[4]; [13]
  Testosterone [ng/mL] (median): 3.77 ng/mL
[4]; [14]
  Testosterone [ng/mL] (median): 4.11 ng/mL
[4]; [15]
  Testosterone [ng/mL] (median): 3.91 ng/mL
[4]; [16]
  Testosterone [ng/mL] (median): 3.49 ng/mL
[4]; [17]
  Testosterone [ng/mL] (median): 3.41 ng/mL
[4]; [18]
  Testosterone [ng/mL] (median): 2.17 ng/mL
[4]; [19]
  Testosterone [ng/mL] (median): 3.82 ng/mL
[4]; [20]
  Testosterone [ng/mL] (median): 4.32 ng/mL
[4]; [21]
  Testosterone [ng/mL] (median): 4.32 ng/mL
[4]; [22]
  Testosterone [ng/mL] (median): 4.06 ng/mL
